According to the supplement of paper PMC10307832:

Key:
Experiment in all cases: relative viability (nuclei count vs DMSO), 5 days (fraction); higher = more cells survive
Imatinib + Phenformin = compound: Cc1ccc(NC(=O)c2ccc(CN3CCN(C)CC3)cc2)cc1Nc1nccc(-c2cccnc2)n1 [Imatinib] + N=C(N)NC(=N)NCCc1ccccc1 [Phenformin] (partner 250 µM)
Procedure, shortened: (§1)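 Lung cancer cell lines were seeded in 1536-well plates and dosed by pin tool the next day, with either a single drug or a fixed anchor-drug dose combined with five library-drug doses (not always all listed) spaced in √10 steps. Five days later, one step fixed the cells and stained their nuclei (final 0.05% Triton X-100, 1% formaldehyde, 1 ug/ml Hoechst), and nuclei were counted on 4× images. Relative viability is the nuclei count in treated wells divided by the count in vehicle wells, and each value is the median of duplicate plates.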

Imatinib + Vorinostat = compound: Cc1ccc(NC(=O)c2ccc(CN3CCN(C)CC3)cc2)cc1Nc1nccc(-c2cccnc2)n1 [Imatinib] + O=C(CCCCCCC(=O)Nc1ccccc1)NO [Vorinostat] (partner 1 µM)
Procedure, shortened: as §1

Imatinib + Olaparib = compound: Cc1ccc(NC(=O)c2ccc(CN3CCN(C)CC3)cc2)cc1Nc1nccc(-c2cccnc2)n1 [Imatinib] + O=C(c1cc(Cc2n[nH]c(=O)c3ccccc23)ccc1F)N1CCN(C(=O)C2CC2)CC1 [Olaparib] (partner 8 µM)
Procedure, shortened: as §1

Imatinib + Decitabine = compound: Cc1ccc(NC(=O)c2ccc(CN3CCN(C)CC3)cc2)cc1Nc1nccc(-c2cccnc2)n1 [Imatinib] + Nc1ncn([C@H]2C[C@H](O)[C@@H](CO)O2)c(=O)n1 [Decitabine] (partner 2 µM)
Procedure, shortened: as §1

Row | Cell Line | relative viability (Imatinib + Phenformin; first compound 0.02 µM) | relative viability (Imatinib + Phenformin; first compound 0.2 µM) | relative viability (Imatinib + Phenformin; first compound 0.6325 µM) | relative viability (Imatinib + Phenformin; first compound 2 µM) | relative viability (Imatinib + Vorinostat; first compound 0.02 µM) | relative viability (Imatinib + Vorinostat; first compound 0.06325 µM) | relative viability (Imatinib + Vorinostat; first compound 0.6325 µM) | relative viability (Imatinib + Vorinostat; first compound 2 µM) | relative viability (Imatinib + Olaparib; first compound 0.02 µM) | relative viability (Imatinib + Olaparib; first compound 0.06325 µM) | relative viability (Imatinib + Olaparib; first compound 0.2 µM) | relative viability (Imatinib + Olaparib; first compound 0.6325 µM) | relative viability (Imatinib + Olaparib; first compound 2 µM) | relative viability (Imatinib + Decitabine; first compound 0.02 µM) | relative viability (Imatinib + Decitabine; first compound 0.06325 µM) | relative viability (Imatinib + Decitabine; first compound 0.2 µM) | relative viability (Imatinib + Decitabine; first compound 0.6325 µM) | relative viability (Imatinib + Decitabine; first compound 2 µM) | relative viability (Imatinib + Vorinostat; first compound 0.2 µM) | relative viability (Imatinib + Phenformin; first compound 0.06325 µM)
1 | 201T | 0.433 | 0.469 | 0.435 | 0.437 | 0.996 | 0.405 | 0.954 | 0.984 | 0.879 | 0.873 | 0.845 | 0.814 | 0.836 | 0.855 | 0.8 | 0.841 | 0.852 | 0.843 |  | 
2 | A-427 | 0.327 | 0.316 | 0.27 | 0.237 |  |  |  |  | 0.797 |  | 0.754 | 0.715 | 0.748 | 0.588 | 0.536 | 0.558 | 0.558 | 0.562 |  | 
3 | ABC-1 | 0.252 | 0.224 | 0.305 | 0.187 | 1.21 |  | 1.02 | 1.24 | 1 |  | 0.732 | 0.785 | 0.581 | 1.22 |  | 0.909 | 1.15 | 1.06 | 1.37 | 
4 | BEN | 0.257 | 0.258 | 0.287 | 0.243 | 0.526 | 0.654 | 0.547 | 0.556 | 1.2 | 1.14 | 1.01 | 1.08 | 1.06 | 0.711 | 0.557 | 0.738 | 0.732 | 0.732 | 0.634 | 
5 | CAL-12T | 0.558 | 0.674 | 0.618 | 0.555 | 0.854 | 0.69 | 0.78 | 0.711 | 0.756 |  | 0.735 | 0.634 | 0.77 |  |  |  |  |  | 0.828 | 
6 | COR-L23 | 0.469 | 0.496 | 0.419 | 0.422 | 0.523 | 0.519 | 0.399 | 0.41 | 0.394 | 0.367 | 0.363 | 0.383 | 0.308 | 0.382 | 0.507 | 0.474 | 0.409 | 0.455 | 0.424 | 0.541
7 | COR-L 105 | 0.51 | 0.453 | 0.497 | 0.373 | 1.12 | 0.858 | 0.701 | 0.841 | 0.873 | 0.663 | 0.678 | 0.724 | 0.665 | 0.709 | 0.694 | 0.675 | 0.563 | 0.655 | 0.825 | 0.632
8 | ChaGo-K-1 | 0.425 | 0.505 | 0.426 | 0.432 | 0.804 |  | 0.761 | 0.697 | 0.389 |  | 0.394 | 0.42 | 0.45 | 0.525 |  | 0.534 | 0.503 | 0.503 | 0.79 | 0.485
9 | EBC-1 |  |  |  |  |  |  |  |  | 0.776 | 0.719 | 0.728 | 0.68 | 0.573 |  |  |  |  |  |  | 
10 | EKVX |  | 0.22 | 0.226 | 0.242 | 0.665 |  | 0.881 | 0.699 | 1.05 |  | 1.12 | 0.923 |  | 0.325 |  | 0.375 | 0.352 |  | 0.753 | 0.249
11 | EMC-BAC-2 | 0.572 | 0.555 | 0.467 | 0.46 | 0.514 | 0.497 | 0.522 | 0.514 | 0.465 | 0.551 | 0.474 | 0.592 | 0.486 | 0.998 | 1.04 |  | 1.07 | 0.936 | 0.492 | 0.632
12 | EPLC-272H | 0.308 | 0.273 | 0.322 | 0.442 | 0.351 |  | 0.309 | 0.422 | 0.669 |  |  | 0.795 | 0.732 | 0.327 |  |  | 0.408 | 0.33 |  | 
13 | H3255 | 0.326 | 0.378 | 0.335 | 0.376 | 0.873 |  |  | 0.588 | 0.576 | 0.572 | 0.565 | 0.566 | 0.612 | 0.605 |  | 0.544 | 0.633 | 0.504 | 0.765 | 0.377
14 | HARA | 0.57 | 0.439 | 0.39 | 0.387 | 0.615 |  | 0.546 | 0.653 | 0.408 | 0.568 |  | 0.896 | 0.68 | 0.584 | 0.518 | 0.503 | 0.473 | 0.579 | 0.595 | 
15 | HCC-15 | 0.502 | 0.518 | 0.451 | 0.433 | 0.857 |  | 0.854 | 0.765 | 0.773 |  | 0.719 | 0.791 | 0.742 | 0.605 | 0.598 | 0.638 | 0.677 | 0.524 | 0.917 | 
16 | HCC-44 | 0.252 | 0.222 | 0.196 | 0.192 | 1.12 |  | 1.14 | 1.04 | 0.956 |  |  | 1.02 | 0.967 | 0.967 |  | 0.954 | 0.971 | 0.899 | 1.14 | 0.22
17 | HCC-78 | 0.695 | 0.719 | 0.591 | 0.641 | 0.417 | 0.344 | 0.447 | 0.492 | 0.564 | 0.688 | 1.09 | 0.885 | 0.999 | 0.644 | 0.7 | 0.715 | 0.721 | 0.71 | 0.383 | 0.674
18 | HCC-366 | 0.64 | 0.637 | 0.631 | 0.579 | 0.421 | 0.307 | 0.369 | 0.368 | 0.427 | 0.336 | 0.389 | 0.335 | 0.346 | 0.324 | 0.366 | 0.356 | 0.374 | 0.329 | 0.467 | 
19 | HCC-827 | 0.432 | 0.475 | 0.37 | 0.403 | 0.797 | 0.906 | 0.788 | 0.684 | 0.741 | 0.724 | 0.762 | 0.639 | 0.628 | 0.31 | 0.32 | 0.311 | 0.36 | 0.307 | 0.858 | 0.481
